Key:
[1] = Fluorescence emission maximum (Em. max) of the fluorochrome in solvent; assay type: physicochemical
[2] = Absorption maximum (Abs. max) of the fluorochrome in solvent; assay type: physicochemical

SMILES | Em. max ([1]; MeOH) [nm] | Em. max ([1]; water) [nm] | Abs. max ([2]; MeOH) [nm] | Abs. max ([2]; water) [nm]
CN1C2CCC1/C(=C\C=C1\N(CCCCS(=O)(=O)O)c3ccccc3C1(C)C)C(Cl)=C2/C=C/C1=[N+](CCCCS(=O)(=O)O)c2ccccc2C1(C)C (centres unmarked) [Compound 11] | 790 | 775 | 770 | 760
CN1C2CCC1/C(=C\C=C1\N(CCCCS(=O)(=O)O)c3ccccc3C1(C)C)C(SCCC(=O)O)=C2/C=C/C1=[N+](CCCCS(=O)(=O)O)c2ccccc2C1(C)C (centres unmarked) [Compound 12] | 810 | 787 | 780 | 768
CN1C2CCC1/C(=C\C=C1\N(CCCS(=O)(=O)O)c3ccc(S(=O)(=O)O)cc3C1(C)C)C(SCCC(=O)O)=C2/C=C/C1=[N+](CCCS(=O)(=O)O)c2ccc(S(=O)(=O)O)cc2C1(C)C (centres unmarked) [Compound 13] | 810 | 797 | 788 | 777
CCN1/C(=C/C=C2C(Cl)=C(/C=C/C3=[N+](CC)c4ccc5c(S(=O)(=O)O)cc(S(=O)(=O)O)cc5c4C3(C)C)C3CCC/2N3C)C(C)(C)c2c1ccc1c(S(=O)(=O)O)cc(S(=O)(=O)O)cc21 (centres unmarked) [Compound 38] | 835 | 827 | 814 | 805
CN1C2CCC1/C(=C\C=C1\N(CCCS(=O)(=O)O)c3ccc(S(=O)(=O)O)cc3C1(C)C)C(Cl)=C2/C=C/C1=[N+](CCCS(=O)(=O)O)c2ccc(S(=O)(=O)O)cc2C1(C)C (centres unmarked) [Compound 39] | 802 | 788 | 780 | 768

From patent publication US9365721B2, “Polycyclo dyes and use thereof” (VISEN MEDICAL, INC., priority 2007, dated 2016)
